Data published in ChEMBL document CHEMBL3232928, “Fragment-to-hit-to-lead discovery of a novel pyridylurea scaffold of ATP competitive dual targeting type II topoisomerase inhibiting antibacterial agents” (J Med Chem, 2013).
≈ marks a conversion by molar mass, not a printed value.

Test system: Escherichia coli
Assay: Antibacterial activity against tolC efflux pump deficient Escherichia coli W3110 assessed as growth inhibition after 18 to 24 hrs by CLSI broth microdilution method
Assay type: functional

Compound | MIC
CCNC(=O)Nc1cc(-c2ccncc2)c(-c2cncc(C(=O)O)c2)cn1 | > 9 µg/mL
CCNC(=O)Nc1cc(-c2nc(C(F)(F)F)cs2)c(-c2nc3cccc(C(=O)O)c3s2)cn1 | 0.8 µg/mL (≈ 1.62 µM)
CCNC(=O)Nc1cc(-c2nc(C(C)(C)C)cs2)c(-c2cncc(C(=O)O)c2)cn1 | 11 µg/mL (≈ 25.9 µM)
CCNC(=O)Nc1ccc(-c2ccc(C(=O)O)cc2)cn1 | 16 µg/mL (≈ 56.1 µM)
CCNC(=O)Nc1cc(Cl)c(-c2cncc(C(=O)O)c2)cn1 | > 64 µg/mL
CCNC(=O)Nc1ccc(-c2ncc(C(N)=O)s2)cn1 | 16 µg/mL (≈ 54.9 µM)
CCNC(=O)Nc1ccc(-c2cncc(C(=O)O)c2)cn1 | > 64 µg/mL
CCNC(=O)Nc1cc(-c2noc(C)n2)c(-c2cncc(C(=O)O)c2)cn1 | > 64 µg/mL
CCNC(=O)Nc1ccc(Oc2cccc(C(=O)O)c2)cn1 | > 64 µg/mL

Test system: not listed separately
Assay: Inhibition of ATPase activity in Escherichia coli ParE by ammonium molybdate/malachite green-based absorbance assay

Compound | IC50
CCNC(=O)Nc1cc(-c2ccncc2)c(-c2cncc(C(=O)O)c2)cn1 | 310 nM
CCNC(=O)Nc1cc(-c2nc(C(F)(F)F)cs2)c(-c2nc3cccc(C(=O)O)c3s2)cn1 | < 10 nM
CCNC(=O)Nc1cc(-c2nc(C(C)(C)C)cs2)c(-c2cncc(C(=O)O)c2)cn1 | 72 nM
CCNC(=O)Nc1ccc(-c2ccc(C(=O)O)cc2)cn1 | 54 nM
CCNC(=O)Nc1cc(Cl)c(-c2cncc(C(=O)O)c2)cn1 | 22 nM
CCNC(=O)Nc1ccc(-c2ncc(C(N)=O)s2)cn1 | 380 nM
CCNC(=O)Nc1ccc(-c2cncc(C(=O)O)c2)cn1 | 400 nM
CCNC(=O)Nc1cc(-c2noc(C)n2)c(-c2cncc(C(=O)O)c2)cn1 | 150 nM
CCNC(=O)Nc1ccc(Oc2cccc(C(=O)O)c2)cn1 | 16000 nM

Test system: Moraxella catarrhalis
Assay: Antibacterial activity against wild type Moraxella catarrhalis ATCC 43617 assessed as growth inhibition after 18 to 24 hrs by CLSI broth microdilution method
Assay type: functional

Compound | MIC
CCNC(=O)Nc1cc(-c2ccncc2)c(-c2cncc(C(=O)O)c2)cn1 | > 9 µg/mL
CCNC(=O)Nc1cc(-c2nc(C(F)(F)F)cs2)c(-c2nc3cccc(C(=O)O)c3s2)cn1 | 1.6 µg/mL (≈ 3.24 µM)
CCNC(=O)Nc1cc(-c2nc(C(C)(C)C)cs2)c(-c2cncc(C(=O)O)c2)cn1 | 43 µg/mL (≈ 101 µM)
CCNC(=O)Nc1ccc(-c2ccc(C(=O)O)cc2)cn1 | 4 µg/mL (≈ 14 µM)
CCNC(=O)Nc1cc(Cl)c(-c2cncc(C(=O)O)c2)cn1 | > 64 µg/mL
CCNC(=O)Nc1ccc(-c2ncc(C(N)=O)s2)cn1 | 8 µg/mL (≈ 27.5 µM)
CCNC(=O)Nc1ccc(-c2cncc(C(=O)O)c2)cn1 | > 64 µg/mL
CCNC(=O)Nc1ccc(Oc2cccc(C(=O)O)c2)cn1 | > 64 µg/mL

Test system: Staphylococcus aureus
Assay: Antibacterial activity against methicillin-sensitive wild type Staphylococcus aureus assessed as growth inhibition after 18 to 24 hrs by CLSI broth microdilution method
Assay type: functional

Compound | MIC
CCNC(=O)Nc1cc(-c2ccncc2)c(-c2cncc(C(=O)O)c2)cn1 | > 9 µg/mL
CCNC(=O)Nc1cc(-c2nc(C(F)(F)F)cs2)c(-c2nc3cccc(C(=O)O)c3s2)cn1 | 3.1 µg/mL (≈ 6.28 µM)
CCNC(=O)Nc1cc(-c2nc(C(C)(C)C)cs2)c(-c2cncc(C(=O)O)c2)cn1 | > 64 µg/mL
CCNC(=O)Nc1ccc(-c2ccc(C(=O)O)cc2)cn1 | > 64 µg/mL
CCNC(=O)Nc1cc(Cl)c(-c2cncc(C(=O)O)c2)cn1 | > 64 µg/mL
CCNC(=O)Nc1ccc(-c2ncc(C(N)=O)s2)cn1 | 64 µg/mL (≈ 220 µM)
CCNC(=O)Nc1ccc(-c2cncc(C(=O)O)c2)cn1 | > 64 µg/mL
CCNC(=O)Nc1cc(-c2noc(C)n2)c(-c2cncc(C(=O)O)c2)cn1 | > 64 µg/mL
CCNC(=O)Nc1ccc(Oc2cccc(C(=O)O)c2)cn1 | > 64 µg/mL

Test system: not listed separately
Assay: Inhibition of ATPase activity in Escherichia coli ParC/ParE by ammonium molybdate/malachite green-based absorbance assay

Compound | IC50
CCNC(=O)Nc1cc(-c2ccncc2)c(-c2cncc(C(=O)O)c2)cn1 | 11000 nM
CCNC(=O)Nc1cc(-c2nc(C(F)(F)F)cs2)c(-c2nc3cccc(C(=O)O)c3s2)cn1 | 360 nM
CCNC(=O)Nc1cc(-c2nc(C(C)(C)C)cs2)c(-c2cncc(C(=O)O)c2)cn1 | 2300 nM
CCNC(=O)Nc1ccc(-c2ccc(C(=O)O)cc2)cn1 | 28000 nM
CCNC(=O)Nc1cc(Cl)c(-c2cncc(C(=O)O)c2)cn1 | 4300 nM
CCNC(=O)Nc1ccc(-c2ncc(C(N)=O)s2)cn1 | 27000 nM
CCNC(=O)Nc1ccc(-c2cncc(C(=O)O)c2)cn1 | 24000 nM
CCNC(=O)Nc1ccc(Oc2cccc(C(=O)O)c2)cn1 | > 200000 nM

Test system: not listed separately
Assay: Octanol-phosphate buffer partition coefficient, log D of the compound at pH 7.4 after 1 hr by shake flask method
Assay type: physicochemical

Compound | logD at 1 h
CCNC(=O)Nc1cc(-c2ccncc2)c(-c2cncc(C(=O)O)c2)cn1 | -0.82
CCNC(=O)Nc1cc(-c2nc(C(F)(F)F)cs2)c(-c2nc3cccc(C(=O)O)c3s2)cn1 | 0.73
CCNC(=O)Nc1cc(-c2nc(C(C)(C)C)cs2)c(-c2cncc(C(=O)O)c2)cn1 | 0.12
CCNC(=O)Nc1cc(Cl)c(-c2cncc(C(=O)O)c2)cn1 | -1.1
CCNC(=O)Nc1cc(-c2noc(C)n2)c(-c2cncc(C(=O)O)c2)cn1 | -2.1

Test system: not listed separately
Assay: Antibacterial activity against wild type Haemophilus influenzae Rd KW20 ATCC 51907 assessed as growth inhibition after 18 to 24 hrs by CLSI broth microdilution method
Assay type: functional

Compound | MIC
CCNC(=O)Nc1cc(-c2ccncc2)c(-c2cncc(C(=O)O)c2)cn1 | > 9 µg/mL
CCNC(=O)Nc1cc(-c2nc(C(F)(F)F)cs2)c(-c2nc3cccc(C(=O)O)c3s2)cn1 | 12 µg/mL (≈ 24.3 µM)
CCNC(=O)Nc1cc(-c2nc(C(C)(C)C)cs2)c(-c2cncc(C(=O)O)c2)cn1 | 43 µg/mL (≈ 101 µM)
CCNC(=O)Nc1ccc(-c2ccc(C(=O)O)cc2)cn1 | 16 µg/mL (≈ 56.1 µM)
CCNC(=O)Nc1cc(Cl)c(-c2cncc(C(=O)O)c2)cn1 | > 64 µg/mL
CCNC(=O)Nc1ccc(-c2ncc(C(N)=O)s2)cn1 | 32 µg/mL (≈ 110 µM)
CCNC(=O)Nc1ccc(-c2cncc(C(=O)O)c2)cn1 | > 64 µg/mL
CCNC(=O)Nc1cc(-c2noc(C)n2)c(-c2cncc(C(=O)O)c2)cn1 | > 64 µg/mL
CCNC(=O)Nc1ccc(Oc2cccc(C(=O)O)c2)cn1 | > 64 µg/mL

Test system: Escherichia coli
Assay: Antibacterial activity against wild type Escherichia coli W3110 assessed as growth inhibition after 18 to 24 hrs by CLSI broth microdilution method
Assay type: functional

Compound | MIC
CCNC(=O)Nc1cc(-c2ccncc2)c(-c2cncc(C(=O)O)c2)cn1 | > 9 µg/mL
CCNC(=O)Nc1cc(-c2nc(C(F)(F)F)cs2)c(-c2nc3cccc(C(=O)O)c3s2)cn1 | > 64 µg/mL
CCNC(=O)Nc1cc(-c2nc(C(C)(C)C)cs2)c(-c2cncc(C(=O)O)c2)cn1 | > 64 µg/mL
CCNC(=O)Nc1ccc(-c2ccc(C(=O)O)cc2)cn1 | > 64 µg/mL
CCNC(=O)Nc1cc(Cl)c(-c2cncc(C(=O)O)c2)cn1 | > 64 µg/mL
CCNC(=O)Nc1ccc(-c2ncc(C(N)=O)s2)cn1 | > 64 µg/mL
CCNC(=O)Nc1ccc(-c2cncc(C(=O)O)c2)cn1 | > 64 µg/mL
CCNC(=O)Nc1cc(-c2noc(C)n2)c(-c2cncc(C(=O)O)c2)cn1 | > 64 µg/mL
CCNC(=O)Nc1ccc(Oc2cccc(C(=O)O)c2)cn1 | > 64 µg/mL

Biological target: DNA gyrase subunit B (Staphylococcus aureus, UniProt P0A0K8)
Sequence (P0A0K8 whole entry): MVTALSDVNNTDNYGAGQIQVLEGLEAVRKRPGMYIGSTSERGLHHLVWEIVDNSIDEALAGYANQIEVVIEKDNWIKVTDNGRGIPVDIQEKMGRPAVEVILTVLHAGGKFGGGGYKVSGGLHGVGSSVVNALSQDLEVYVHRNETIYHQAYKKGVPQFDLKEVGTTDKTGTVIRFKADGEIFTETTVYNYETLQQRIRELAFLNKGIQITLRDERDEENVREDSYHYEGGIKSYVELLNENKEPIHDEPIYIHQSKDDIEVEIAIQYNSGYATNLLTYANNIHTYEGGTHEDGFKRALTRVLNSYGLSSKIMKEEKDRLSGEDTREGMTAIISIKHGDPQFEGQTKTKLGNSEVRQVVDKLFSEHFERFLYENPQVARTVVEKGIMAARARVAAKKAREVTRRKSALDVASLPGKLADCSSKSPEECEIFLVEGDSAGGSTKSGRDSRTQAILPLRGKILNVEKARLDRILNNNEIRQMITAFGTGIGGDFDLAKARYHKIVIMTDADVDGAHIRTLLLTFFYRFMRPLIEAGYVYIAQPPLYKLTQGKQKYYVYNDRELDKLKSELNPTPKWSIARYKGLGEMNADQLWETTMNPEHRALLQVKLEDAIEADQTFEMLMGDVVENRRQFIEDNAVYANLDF
Assay: Inhibition of ATPase activity in Staphylococcus aureus GyrB tetramer in presence of Escherichia coli GyrA by ammonium molybdate/malachite green-based absorbance assay

Compound | IC50
CCNC(=O)Nc1cc(-c2ccncc2)c(-c2cncc(C(=O)O)c2)cn1 | 320 nM
CCNC(=O)Nc1cc(-c2nc(C(F)(F)F)cs2)c(-c2nc3cccc(C(=O)O)c3s2)cn1 | < 10 nM
CCNC(=O)Nc1cc(-c2nc(C(C)(C)C)cs2)c(-c2cncc(C(=O)O)c2)cn1 | 30 nM
CCNC(=O)Nc1ccc(-c2ccc(C(=O)O)cc2)cn1 | 880 nM
CCNC(=O)Nc1cc(Cl)c(-c2cncc(C(=O)O)c2)cn1 | 130 nM
CCNC(=O)Nc1ccc(-c2ncc(C(N)=O)s2)cn1 | 550 nM
CCNC(=O)Nc1ccc(Oc2cccc(C(=O)O)c2)cn1 | 9900 nM

Test system: not listed separately
Assay: Inhibition of ATPase activity in Escherichia coli GyrA/GyrB by ammonium molybdate/malachite green-based absorbance assay

Compound | IC50
CCNC(=O)Nc1cc(-c2ccncc2)c(-c2cncc(C(=O)O)c2)cn1 | 240 nM
CCNC(=O)Nc1cc(-c2nc(C(F)(F)F)cs2)c(-c2nc3cccc(C(=O)O)c3s2)cn1 | < 10 nM
CCNC(=O)Nc1cc(-c2nc(C(C)(C)C)cs2)c(-c2cncc(C(=O)O)c2)cn1 | 12 nM
CCNC(=O)Nc1ccc(-c2ccc(C(=O)O)cc2)cn1 | 1600 nM
CCNC(=O)Nc1cc(Cl)c(-c2cncc(C(=O)O)c2)cn1 | 58 nM
CCNC(=O)Nc1ccc(-c2ncc(C(N)=O)s2)cn1 | 560 nM
CCNC(=O)Nc1ccc(-c2cncc(C(=O)O)c2)cn1 | 1400 nM
CCNC(=O)Nc1ccc(Oc2cccc(C(=O)O)c2)cn1 | 4400 nM

Test system: not listed separately
Assay: Antibacterial activity against Streptococcus pneumoniae D39 NCTC 7466 assessed as growth inhibition after 18 to 24 hrs by CLSI broth microdilution method
Assay type: functional

Compound | MIC
CCNC(=O)Nc1cc(-c2ccncc2)c(-c2cncc(C(=O)O)c2)cn1 | > 9 µg/mL
CCNC(=O)Nc1cc(-c2nc(C(F)(F)F)cs2)c(-c2nc3cccc(C(=O)O)c3s2)cn1 | 0.05 µg/mL (≈ 0.101 µM)
CCNC(=O)Nc1cc(-c2nc(C(C)(C)C)cs2)c(-c2cncc(C(=O)O)c2)cn1 | 0.66 µg/mL (≈ 1.55 µM)
CCNC(=O)Nc1cc(Cl)c(-c2cncc(C(=O)O)c2)cn1 | 4 µg/mL (≈ 12.5 µM)
CCNC(=O)Nc1ccc(-c2ncc(C(N)=O)s2)cn1 | 4 µg/mL (≈ 13.7 µM)
CCNC(=O)Nc1ccc(-c2cncc(C(=O)O)c2)cn1 | > 64 µg/mL
CCNC(=O)Nc1cc(-c2noc(C)n2)c(-c2cncc(C(=O)O)c2)cn1 | > 64 µg/mL
CCNC(=O)Nc1ccc(Oc2cccc(C(=O)O)c2)cn1 | > 64 µg/mL

Test system: Staphylococcus aureus
Assay: Antibacterial activity against methicillin-resistant and […] Staphylococcus aureus assessed as growth inhibition after 18 to 24 hrs by CLSI broth microdilution method
Assay type: functional

Compound | MIC
CCNC(=O)Nc1cc(-c2nc(C(F)(F)F)cs2)c(-c2nc3cccc(C(=O)O)c3s2)cn1 | 6.1 µg/mL (≈ 12.4 µM)
CCNC(=O)Nc1ccc(-c2ncc(C(N)=O)s2)cn1 | > 64 µg/mL
